These results are taken from US20130096067A1, “DROSOPHILA TUMOR STEM CELL MODEL AND USES THEREOF” (priority 2011, published 2013).

Each structure is given as a SMILES string. Read-outs that look alike come from different tables or passages of the source. Square brackets hold non-standard residues; d marks the D form. Peptide text beside a SMILES is read from it. * marks the point of attachment. Nle = CCCC[C@H](N)C(=O)O; Boc = CC(C)(C)OC(=O)*; CH2Cl = ClC*

For this assay, the system named is Raf-1^gof intestinal tumors. The conditions noted are these: for Log2 (fold) (luciferase activity, log2 of the fold difference relative to DMSO controls) / Fold (luciferase activity, fold difference relative to DMSO controls): screen of 480 ICCB compounds in vials, compounds fed to flies with one-day old Raf-1^gof tumors, esg-Gal4 luciferase.
Setting [1] is: ICCB compounds fed in vials to flies with one-day old Raf-1^gof tumors, assessed three days later.
[2] abbreviates: ICCB compounds fed in vials to flies with one-day old Raf-1^gof tumors, assessed three days later, averaged from multiple wells.
Setting [3] is: assessed three days later, averaged from multiple wells.
Also: test concentration or dose not given here.

On to `CNc1ccc2oc(C[C@H]3O[C@@]4(CC[C@H]3C)O[C@H]([C@H](C)C(=O)c3ccc[nH]3)[C@H](C)C[C@H]4C)nc2c1C(=O)O` [A-23187], for which the “Log2 (fold) of luciferase activity relative to DMSO controls” value under setting [1] came to 0.176. Moreover, the “Fold (luciferase activity relative to DMSO controls)” value under setting [2] is 1.130 fold.
Regarding `CC1=C(C)C(=O)C(CCCCC#CCCCC#CCO)=C(C)C1=O` [AA-861], the “Log2 (fold) (luciferase activity, log2 of the fold difference relative to DMSO controls)” value (assessed three days later) was −0.444. Moreover, under setting [3], the “Fold (luciferase activity, fold difference relative to DMSO controls)” value stood at 0.735.
For `CCN1C[C@]2(COC)[C@H](O)C[C@H](OC)[C@@]34[C@@H]5C[C@@]6(O)[C@H](OC(=O)c7ccccc7)[C@@H]5[C@@](OC(C)=O)([C@@H]([C@H](OC)[C@H]23)[C@@H]14)[C@@H](O)[C@@H]6OC` [ACONITINE], in that order: −0.278 and 0.825.
For `CCCCC/C=C\C/C=C\C/C=C\C/C=C\CCCCCC(=O)O` [ADRENIC ACID (22:4, n-6)], in that order: −0.364 and 0.777.
For `N#C/C(=C\c1ccc(O)c(O)c1)C(N)=S` [AG213 (Tyrphostin 47)], in that order: −0.625 and 0.648.
Regarding `COc1cc2ncnc(Nc3cccc(Cl)c3)c2cc1OC` [AG1478], the “Log2 (fold) (luciferase activity, log2 of the fold difference relative to DMSO controls)” value (assessed three days later) was −0.655. Besides, the “Fold (luciferase activity, fold difference relative to DMSO controls)” value under setting [3] is 0.635.
As to `N#CC(=Cc1ccc2[nH]ccc2c1)C(N)=C(C#N)C#N` [AG-370], the “Log2 (fold) (luciferase activity, log2 of the fold difference relative to DMSO controls)” value (assessed three days later) is given as −0.559. In addition, the “Fold (luciferase activity, fold difference relative to DMSO controls)” value under setting [3] was 0.679.
The matching figures for `N#C/C(=C/c1ccc(O)c(O)c1)C(=O)NCc1ccccc1` [AG-490]: −0.272 and 0.828.
Turning to `CC(C)(C)c1cc(/C=C(\C#N)C(N)=S)cc(C(C)(C)C)c1O` [AG-879], the “Log2 (fold) of luciferase activity relative to DMSO controls” value under setting [1] stood at 0.902. Also, the “Fold (luciferase activity relative to DMSO controls)” value under setting [2] is given as 1.869 fold.
For the molecule `CC(=O)N[C@@H](CSC/C=C(\C)CCC=C(C)C)C(=O)O` [AGC], for the setting “assessed three days later”, the “Log2 (fold) (luciferase activity, log2 of the fold difference relative to DMSO controls)” value is listed as −0.508. In addition, the “Fold (luciferase activity, fold difference relative to DMSO controls)” value under setting [3] is listed as 0.703.
Consider `CC(=O)N[C@@H](CSC/C=C(\C)CC/C=C(\C)CC/C=C(\C)CCC=C(C)C)C(=O)O` [AGGC], for which, for the setting “in vivo”, the “Fold (luciferase activity relative to DMSO controls)” value came out at 1.001 fold and the “Log2 (fold) of luciferase activity relative to DMSO controls” value is given as 0.001.
In the case of `CN(CCc1ccc(Cl)c(Cl)c1)CC(O)COc1ccc(NS(C)(=O)=O)cc1` (stereo not shown) [AM 92016], the “Log2 (fold) (luciferase activity, log2 of the fold difference relative to DMSO controls)” value (assessed three days later) is recorded as −0.341. Also, the “Fold (luciferase activity, fold difference relative to DMSO controls)” value under setting [3] was 0.789.
With `Cc1c(C(=O)NN2CCCCC2)nn(-c2ccc(Cl)cc2Cl)c1-c1ccc(I)cc1` [AM-251], under setting [1], the “Log2 (fold) of luciferase activity relative to DMSO controls” value worked out at 0.065. The “Fold (luciferase activity relative to DMSO controls)” value under setting [2] is 1.046 fold.
Consider `CC1(C)CCC(C)(C)c2cc(C(=O)Nc3ccc(C(=O)O)cc3)ccc21` [AM-580], for which the “Log2 (fold) (luciferase activity, log2 of the fold difference relative to DMSO controls)” value (assessed three days later) was −0.311. In addition, the “Fold (luciferase activity, fold difference relative to DMSO controls)” value under setting [3] was determined as 0.806.
In the case of `NC12CC3CC(CC(C3)C1)C2` [AMANTIDINE], for the setting “assessed three days later”, the “Log2 (fold) (luciferase activity, log2 of the fold difference relative to DMSO controls)” value is reported as −0.252. Further, under setting [3], the “Fold (luciferase activity, fold difference relative to DMSO controls)” value is on record as 0.840.
With `N=C(N)NC(=O)c1nc(Cl)c(N)nc1N` [AMILORIDE], under setting [1], the “Log2 (fold) of luciferase activity relative to DMSO controls” value is given as −0.041. Also, the “Fold (luciferase activity relative to DMSO controls)” value under setting [2] is given as 0.972 fold.
Take `CCCCc1oc2ccccc2c1C(=O)c1cc(I)c(OCCN(CC)CC)c(I)c1` [AMIODARONE]: the “Log2 (fold) of luciferase activity relative to DMSO controls” value under setting [1] was 0.102. Further, the “Fold (luciferase activity relative to DMSO controls)” value under setting [2] stood at 1.074 fold.
For `CCCCC/C=C\C/C=C\CCCCCCCC(=O)NCCO` [ANANDAMIDE (18:2, n-6)], in that order: −0.101 and 0.932 fold.
For the molecule `CCCCC/C=C\C/C=C\C/C=C\CCCCCCC(=O)NCCO` [ANANDAMIDE (20:3, n-6)], the “Log2 (fold) (luciferase activity, log2 of the fold difference relative to DMSO controls)” value (assessed three days later) was −0.653. Moreover, the “Fold (luciferase activity, fold difference relative to DMSO controls)” value under setting [3] came to 0.636.
Consider `CCCCC/C=C\C/C=C\C/C=C\C/C=C\CCCC(=O)NCCO` [ANANDAMIDE (20:4, n-6)], for which the “Log2 (fold) of luciferase activity relative to DMSO controls” value under setting [1] is listed as 0.054. Besides, the “Fold (luciferase activity relative to DMSO controls)” value under setting [2] turned out to be 1.038 fold.
The matching figures for `CCCCC/C=C\C/C=C\C/C=C\C/C=C\CCCCCC(=O)NCCO` [ANANDAMIDE (22:4, n-6)]: 0.007 and 1.005 fold.
Regarding `CCCCC/C=C\C/C=C\C/C=C\C/C=C\CCCC(N)=O` [ARACHIDONAMIDE], the “Log2 (fold) of luciferase activity relative to DMSO controls” value under setting [1] is −0.069. Moreover, the “Fold (luciferase activity relative to DMSO controls)” value under setting [2] came to 0.954 fold.
The matching figures for `CCCCC/C=C\C/C=C\C/C=C\C/C=C\CCCC(=O)O` [ARACHIDONIC ACID (20:4, n-6)]: −0.045 and 0.969 fold.
Take `CCCCC/C=C\C/C=C\C/C=C\C/C=C\CCCC(=O)O[C@H](COCCCCCCCCCCCCCCCC)COP(=O)([O-])OCC[N+](C)(C)C` [ARACHIDONOYL-PAF]: where the note is “assessed three days later”, the “Log2 (fold) (luciferase activity, log2 of the fold difference relative to DMSO controls)” value is reported as −0.439. The “Fold (luciferase activity, fold difference relative to DMSO controls)” value under setting [3] is on record as 0.738.
Take `CCCC[C@@H](C=O)NC(=O)[C@H](CC(C)C)NC(=O)[C@H](CC(C)C)NC(C)=O` [Ac-Leu-Leu-Nle-CHO] (Ac-Leu-Leu-[Nle]-aldehyde): where the note is “assessed three days later”, the “Log2 (fold) (luciferase activity, log2 of the fold difference relative to DMSO controls)” value was −0.431. Also, the “Fold (luciferase activity, fold difference relative to DMSO controls)” value under setting [3] turned out to be 0.742.
The matching figures for `C[C@H](N)C(=O)N[C@@H](C)C(=O)N[C@@H](Cc1ccccc1)C(=O)CCl` [Ala-Ala-Phe-CMK] (H-Ala-Ala-Phe-CH2Cl): −0.738 and 0.599.
For `O=C(O)CN1C(=O)c2cccc3cccc(c23)C1=O` [Alrestatin], in that order: −0.320 and 0.801.
Consider `CCCCC/C=C\C/C=C\C/C=C\C/C=C\CCCC(=O)NCc1ccc(O)c(OC)c1` [Arvanil], for which the “Log2 (fold) (luciferase activity, log2 of the fold difference relative to DMSO controls)” value (assessed three days later) was −0.482. Also, the “Fold (luciferase activity, fold difference relative to DMSO controls)” value under setting [3] came out at 0.716.
Take `CC(C)(c1ccc(OCC2CO2)cc1)c1ccc(OCC2CO2)cc1` (stereo not shown) [BADGE]: the “Log2 (fold) of luciferase activity relative to DMSO controls” value under setting [1] is reported as 0.345. The “Fold (luciferase activity relative to DMSO controls)” value under setting [2] was 1.270 fold.
Consider `CC(=O)OCOC(=O)CN(CC(=O)OCOC(C)=O)c1ccccc1OCCOc1ccccc1N(CC(=O)OCOC(C)=O)CC(=O)OCOC(C)=O` [BAPTA-AM], for which the “Log2 (fold) (luciferase activity, log2 of the fold difference relative to DMSO controls)” value (assessed three days later) is −0.242. For the same molecule, the “Fold (luciferase activity, fold difference relative to DMSO controls)” value under setting [3] is on record as 0.846.
As for `Cc1ccc(S(=O)(=O)/C=C/C#N)cc1` [BAY 11-7082], the “Log2 (fold) (luciferase activity, log2 of the fold difference relative to DMSO controls)” value (assessed three days later) was −0.470. The “Fold (luciferase activity, fold difference relative to DMSO controls)” value under setting [3] stood at 0.722.
For `COC(=O)C1=C(C)NC(C)=C([N+](=O)[O-])C1c1ccccc1C(F)(F)F` (stereo not shown) [BAY K-8644], under setting [1], the “Log2 (fold) of luciferase activity relative to DMSO controls” value was −0.027. Besides, under setting [2], the “Fold (luciferase activity relative to DMSO controls)” value is 0.982 fold.
With `NC(=NCc1ccccc1)NC(=O)c1nc(Cl)c(N)nc1N` [BENZAMIL], the “Log2 (fold) of luciferase activity relative to DMSO controls” value under setting [1] amounted to 0.006. The “Fold (luciferase activity relative to DMSO controls)” value under setting [2] is given as 1.004 fold.
Consider `CC(C)COCC(CN(Cc1ccccc1)c1ccccc1)N1CCCC1` (stereo not shown) [BEPRIDIL], for which the “Log2 (fold) of luciferase activity relative to DMSO controls” value under setting [1] was −0.054. The “Fold (luciferase activity relative to DMSO controls)” value under setting [2] was 0.963 fold.
As for `COc1ccc2c(c1)c(CC(=O)N1CCOCC1)c(C)n2C(=O)c1ccc(Cl)cc1` [BML-190], under setting [1], the “Log2 (fold) of luciferase activity relative to DMSO controls” value is −0.202. In addition, the “Fold (luciferase activity relative to DMSO controls)” value under setting [2] is on record as 0.869 fold.
Turning to `CC(C)C[C@H](NC(=O)[C@@H](O)[C@H](N)Cc1ccccc1)C(=O)O` [Bestatin], the “Log2 (fold) (luciferase activity, log2 of the fold difference relative to DMSO controls)” value (assessed three days later) is −0.688. In addition, under setting [3], the “Fold (luciferase activity, fold difference relative to DMSO controls)” value is on record as 0.621.
For `C=C(C)[C@@H]1CC[C@]2(C(=O)O)CC[C@]3(C)[C@H](CC[C@@H]4[C@@]5(C)CC[C@H](O)C(C)(C)[C@@H]5CC[C@]43C)[C@@H]12` [Betulinic acid], in that order: −0.708 and 0.612.
As to `Cc1ccc2c(c1)C(=O)C1(O)CCN(c3ccccc3)C1=N2` (stereo not shown) [Blebbistatin], the “Log2 (fold) of luciferase activity relative to DMSO controls” value under setting [1] stood at 0.196. For the same molecule, the “Fold (luciferase activity relative to DMSO controls)” value under setting [2] was determined as 1.146 fold.
For the molecule `CC(C)[C@H](NC(=O)CNC(=O)OC(C)(C)C)C(=O)N[C@H](C=O)C(C)C` [Boc-GVV-CHO] (Boc-Gly-Val-Val-aldehyde), the “Log2 (fold) (luciferase activity, log2 of the fold difference relative to DMSO controls)” value (assessed three days later) is on record as −0.696. The “Fold (luciferase activity, fold difference relative to DMSO controls)” value under setting [3] amounted to 0.617.
For the molecule `Nc1ncnc2c1nc(Br)n2C1O[C@H]2COP(=O)(O)O[C@@H]2[C@@H]1O` (stereo partly shown) [Bromo-cAMP [8-Bromo-cAMP]], the “Log2 (fold) of luciferase activity relative to DMSO controls” value under setting [1] is −0.045. Besides, under setting [2], the “Fold (luciferase activity relative to DMSO controls)” value came out at 0.969 fold.
For `Nc1nc2c(nc(Br)n2[C@@H]2O[C@@H]3COP(=O)(O)O[C@H]3[C@H]2O)c(=O)[nH]1` [Bromo-cGMP [8-Bromo-cGMP]], in that order: 0.021 and 1.015 fold.
